Values quoted from earlier work as cited in patent publication US20020037290A1, “Compositions comprising heat shock proteins or alpha(2) macroglobulin, antigenic molecules and saponins, and methods of use thereof” (priority 2000, published 2002).

Legend:
[1] = tested on: bovine serum albumin and cytochrome b5; conditions: Kensil et al., 1991, cited from earlier work; for level of antibody response induced: mice, antigens bovine serum albumin and cytochrome b5; for IgG2a response to cytochrome b5: saponin doses of 20 μg
[2] = mouse, in vivo; cited from earlier work
[3] = tested on: murine antiidiotype antibody MELIMMUNE-1; conditions: melanoma patients; Livingston et al., 1995; cited from earlier work
UV6138 carcinoma = conditions: cited from earlier work
UV6139SJ carcinoma [4] = conditions: prior experiments, cited from earlier work; for tumor growth, monitored as the average of two perpendicular diameter measurements: U.S. Pat. No. 5,837,251, established UV6139SJ carcinoma
UV6139SJ carcinoma [5] = conditions: cited from earlier work
[6] = previously shown, U.S. Pat. No. 5,837,251
[7] = prior result of U.S. Pat. No. 5,837,251, resistant mice out of mice challenged

Row | Molecule | level of antibody response induced [1] | IgG2a response to cytochrome b5 [1] | tumor growth, monitored as the average of two perpendicular diameter measurements (UV6139SJ carcinoma [4]) | other results
1 | QS-17 | comparable to other commonly used adjuvants | stimulate IgG2a response | – | –
2 | QS-18 | comparable to other commonly used adjuvants | stimulate IgG2a response | – | –
3 | QS-21 | comparable to other commonly used adjuvants | stimulate IgG2a response | – | toxicity in mice [2]: least toxic; serological response to MELIMMUNE-1 [3]: significantly increased
4 | gp96 derived from the UV6138: heat shock protein gp96(-peptide complex) preparation isolated from the UV-induced UV6138 mouse carcinoma (protein, UniProt P08113 22-802, looked up, bound tumor peptides, heat shock protein gp96(-peptide complex) preparation isolated from the UV-induced UV6138 mouse carcinoma) Endoplasmin: DDEVDVDGTVEEDLGKSREGSRTDDEVVQREEEAIQLDGLNASQIRELREKSEKFAFQAEVNRMMKLIINSLYKNKEIFLRELISNASDALDKIRLISLTDENALAGNEELTVKIKCDKEKNLLHVTDTGVGMTREELVKNLGTIAKSGTSEFLNKMTEAQEDGQSTSELIGQFGVGFYSAFLVADKVIVTSKHNNDTQHIWESDSNEFSVIADPRGNTLGRGTTITLVLKEEASDYLELDTIKNLVRKYSQFINFPIYVWSSKTETVEEPLEEDEAAKEEKEESDDEAAVEEEEEEKKPKTKKVEKTVWDWELMNDIKPIWQRPSKEVEEDEYKAFYKSFSKESDDPMAYIHFTAEGEVTFKSILFVPTSAPRGLFDEYGSKKSDYIKLYVRRVFITDDFHDMMPKYLNFVKGVVDSDDLPLNVSRETLQQHKLLKVIRKKLVRKTLDMIKKIADEKYNDTFWKEFGTNIKLGVIEDHSNRTRLAKLLRFQSSHHSTDITSLDQYVERMKEKQDKIYFMAGSSRKEAESSPFVERLLKKGYEVIYLTEPVDEYCIQALPEFDGKRFQNVAKEGVKFDESEKTKESREATEKEFEPLLNWMKDKALKDKIEKAVVSQRLTESPCALVASQYGWSGNMERIMKAQAYQTGKDISTNYYASQKKTFEINPRHPLIRDMLRRIKEDEDDKTVMDLAVVLFETATLRSGYLLPDTKAYGDRIERMLRLSLNIDPEAQVEEEPEEEPEDTSEDAEDSEQDEGEEMDAGTEEEEEETEKESTEKDEL | – | – | – | immunity to the UV6138 challenge (UV6138 carcinoma; [6]): rendered the mice immune; resistance conferred against the UV6138 cells (UV6138 carcinoma; [7]): 6 out of 7
5 | gp96 derived from the UV6139: gp96-peptide complex derived from UV6139SJ carcinoma cells (protein, UniProt P08113 22-802, looked up, bound tumor peptides, gp96-peptide complex derived from UV6139SJ carcinoma cells) Endoplasmin: DDEVDVDGTVEEDLGKSREGSRTDDEVVQREEEAIQLDGLNASQIRELREKSEKFAFQAEVNRMMKLIINSLYKNKEIFLRELISNASDALDKIRLISLTDENALAGNEELTVKIKCDKEKNLLHVTDTGVGMTREELVKNLGTIAKSGTSEFLNKMTEAQEDGQSTSELIGQFGVGFYSAFLVADKVIVTSKHNNDTQHIWESDSNEFSVIADPRGNTLGRGTTITLVLKEEASDYLELDTIKNLVRKYSQFINFPIYVWSSKTETVEEPLEEDEAAKEEKEESDDEAAVEEEEEEKKPKTKKVEKTVWDWELMNDIKPIWQRPSKEVEEDEYKAFYKSFSKESDDPMAYIHFTAEGEVTFKSILFVPTSAPRGLFDEYGSKKSDYIKLYVRRVFITDDFHDMMPKYLNFVKGVVDSDDLPLNVSRETLQQHKLLKVIRKKLVRKTLDMIKKIADEKYNDTFWKEFGTNIKLGVIEDHSNRTRLAKLLRFQSSHHSTDITSLDQYVERMKEKQDKIYFMAGSSRKEAESSPFVERLLKKGYEVIYLTEPVDEYCIQALPEFDGKRFQNVAKEGVKFDESEKTKESREATEKEFEPLLNWMKDKALKDKIEKAVVSQRLTESPCALVASQYGWSGNMERIMKAQAYQTGKDISTNYYASQKKTFEINPRHPLIRDMLRRIKEDEDDKTVMDLAVVLFETATLRSGYLLPDTKAYGDRIERMLRLSLNIDPEAQVEEEPEEEPEDTSEDAEDSEQDEGEEMDAGTEEEEEETEKESTEKDEL | – | – | significantly retarded | kinetics of tumor growth in treated and control mice (UV6139SJ carcinoma [4]; effect appears to diminish after treatment is terminated): immediate inhibitory effect on tumor growth; immunity to the UV6139SJ challenge (UV6139SJ carcinoma [5]; [6]): conferred resistance; resistance conferred against the UV6139SJ cells (UV6139SJ carcinoma [5]; [7]): 2 out of 4
6 | liver-derived gp96: gp96-peptide complex derived from normal liver (protein, UniProt P08113 22-802, looked up, bound peptides) Endoplasmin: DDEVDVDGTVEEDLGKSREGSRTDDEVVQREEEAIQLDGLNASQIRELREKSEKFAFQAEVNRMMKLIINSLYKNKEIFLRELISNASDALDKIRLISLTDENALAGNEELTVKIKCDKEKNLLHVTDTGVGMTREELVKNLGTIAKSGTSEFLNKMTEAQEDGQSTSELIGQFGVGFYSAFLVADKVIVTSKHNNDTQHIWESDSNEFSVIADPRGNTLGRGTTITLVLKEEASDYLELDTIKNLVRKYSQFINFPIYVWSSKTETVEEPLEEDEAAKEEKEESDDEAAVEEEEEEKKPKTKKVEKTVWDWELMNDIKPIWQRPSKEVEEDEYKAFYKSFSKESDDPMAYIHFTAEGEVTFKSILFVPTSAPRGLFDEYGSKKSDYIKLYVRRVFITDDFHDMMPKYLNFVKGVVDSDDLPLNVSRETLQQHKLLKVIRKKLVRKTLDMIKKIADEKYNDTFWKEFGTNIKLGVIEDHSNRTRLAKLLRFQSSHHSTDITSLDQYVERMKEKQDKIYFMAGSSRKEAESSPFVERLLKKGYEVIYLTEPVDEYCIQALPEFDGKRFQNVAKEGVKFDESEKTKESREATEKEFEPLLNWMKDKALKDKIEKAVVSQRLTESPCALVASQYGWSGNMERIMKAQAYQTGKDISTNYYASQKKTFEINPRHPLIRDMLRRIKEDEDDKTVMDLAVVLFETATLRSGYLLPDTKAYGDRIERMLRLSLNIDPEAQVEEEPEEEPEDTSEDAEDSEQDEGEEMDAGTEEEEEETEKESTEKDEL | – | – | not | –
